Results published in the supplement of paper PMC13380429.

Columns and labels:
Settings in all cases: 72 h
Vero E6 [1] = assay: drug sensitivity score (DSS) for viability; higher = more toxic; extreme values may be limits of the assay
HepG2 [2] = assay: as above
Calu-3 [3] = assay: as above
Caco-2 [4] = assay: as above
U2OS [5] = assay: as above
Vero E6 [6] = assay: cell viability relative to DMSO; higher = less toxic
HepG2 [7] = assay: as above
Calu-3 [8] = assay: as above
Caco-2 [9] = assay: as above
U2OS [10] = assay: as above
Vero E6 [11] = assay: relative viability EC50 (midpoint between 100% and the lowest measured viability); higher = less toxic
HepG2 [12] = assay: as above
Calu-3 [13] = assay: as above
Caco-2 [14] = assay: as above
U2OS [15] = assay: as above

Row | Compound | drug sensitivity score (Vero E6 [1]) | drug sensitivity score (HepG2 [2]) | drug sensitivity score (Calu-3 [3]) | drug sensitivity score (Caco-2 [4]) | drug sensitivity score (U2OS [5]) | cell viability (Vero E6 [6]; 1 nM) [%] | cell viability (Vero E6 [6]; 10 nM) [%] | cell viability (Vero E6 [6]; 100 nM) [%] | cell viability (Vero E6 [6]; 1000 nM) [%] | cell viability (Vero E6 [6]; 10000 nM) [%] | cell viability (HepG2 [7]; 1 nM) [%] | cell viability (HepG2 [7]; 10 nM) [%] | cell viability (HepG2 [7]; 100 nM) [%] | cell viability (HepG2 [7]; 1000 nM) [%] | cell viability (HepG2 [7]; 10000 nM) [%] | cell viability (Calu-3 [8]; 1 nM) [%] | cell viability (Calu-3 [8]; 10 nM) [%] | cell viability (Calu-3 [8]; 100 nM) [%] | cell viability (Calu-3 [8]; 1000 nM) [%] | cell viability (Calu-3 [8]; 10000 nM) [%] | cell viability (Caco-2 [9]; 1 nM) [%] | cell viability (Caco-2 [9]; 10 nM) [%] | cell viability (Caco-2 [9]; 100 nM) [%] | cell viability (Caco-2 [9]; 1000 nM) [%] | cell viability (Caco-2 [9]; 10000 nM) [%] | cell viability (U2OS [10]; 1 nM) [%] | cell viability (U2OS [10]; 10 nM) [%] | cell viability (U2OS [10]; 100 nM) [%] | cell viability (U2OS [10]; 1000 nM) [%] | cell viability (U2OS [10]; 10000 nM) [%] | relative viability EC50 (Vero E6 [11]) [µM] | relative viability EC50 (HepG2 [12]) [µM] | relative viability EC50 (Calu-3 [13]) [µM] | relative viability EC50 (Caco-2 [14]) [µM] | relative viability EC50 (U2OS [15]) [µM]
1 | CCCCOc1cc(C(=O)OCCN(CC)CC)ccc1N [oxybuprocaine] | 0 | 0 | 0 | 0 | 0 | 103 | 105 | 101 | 102 | 97.9 | 105 | 117 | 95.7 | 97.8 | 90 | 96 | 106 | 110 | 107 | 98.7 | 106 | 96.9 | 98.7 | 100 | 100 | 104 | 96.7 | 105 | 101 | 101 | > 10 | > 10 | > 10 | > 10 | > 10
2 | Oc1nc(O)c2cn[nH]c2n1 [oxypurinol] | 0 | 0 | 0 | 0 | 0 | 96.1 | 103 | 98.5 | 101 | 100 | 108 | 86.2 | 104 | 101 | 96 | 95.6 | 108 | 97.2 | 107 | 94.6 | 107 | 100 | 98 | 97.7 | 97.1 | 101 | 102 | 93.6 | 99.5 | 99.8 | > 10 | > 10 | > 10 | > 10 | > 10
3 | COc1ccnc(C[S+]([O-])c2nc3cc(OC(F)F)ccc3[nH]2)c1OC (stereo not given) [pantoprazole] | 0 | 0 | 0 | 0 | 0 | 95.4 | 97.1 | 91.7 | 91 | 99.2 | 106 | 107 | 111 | 99.2 | 117 | 99 | 99.1 | 98.4 | 95.9 | 94.8 | 99.5 | 104 | 98.7 | 103 | 89.4 | 109 | 105 | 102 | 101 | 99.3 | > 10 | > 10 | > 10 | > 10 | > 10
4 | CC(COc1ccccc1)N(CCCl)Cc1ccccc1 (stereo not given) [phenoxybenzamine] | 0 | 0.6 | 0 | 0.5 | 0 | 102 | 98.3 | 101 | 97.9 | 94.3 | 101 | 106 | 88.7 | 89.4 | 96.5 | 96.5 | 109 | 106 | 101 | 95.8 | 86.6 | 92.7 | 102 | 95.9 | 86 | 96.3 | 102 | 93.4 | 114 | 93.6 | > 10 | > 10 | > 10 | > 10 | > 10
5 | CC(C)(N)Cc1ccccc1 [phentermine] | 0 | 0 | 0 | 0 | 0 | 102 | 92.1 | 102 | 100 | 96.3 | 98.5 | 98.2 | 109 | 92.3 | 94.8 | 93.3 | 81 | 97.4 | 104 | 98.4 | 108 | 108 | 99.8 | 96.3 | 95.8 | 97.4 | 96 | 100 | 95.5 | 103 | > 10 | > 10 | > 10 | > 10 | > 10
6 | CCCCN1CCC(CNC(=O)c2c3n(c4ccccc24)CCCO3)CC1 [piboserod] | 0 | 0 | 0.2 | 0 | 0 | 93.1 | 92.7 | 95 | 91.4 | 95.9 | 94.2 | 106 | 106 | 98.5 | 95.5 | 108 | 91.9 | 102 | 104 | 83 | 96 | 99.8 | 96.9 | 99 | 93.4 | 97.7 | 98.7 | 97.7 | 101 | 91.9 | > 10 | > 10 | > 10 | > 10 | > 10
